Measured values as given in the supplement of paper PMC10307832.

Assays:
Assay in all cases: relative viability (nuclei count vs DMSO), 5 days (fraction); higher = more cells survive
SGI-1776 + AZD7762 = compound: CN1CCC(CNc2ccc3ncc(-c4cccc(OC(F)(F)F)c4)n3n2)CC1 [SGI-1776] + NC(=O)Nc1cc(-c2cccc(F)c2)sc1C(=O)N[C@H]1CCCNC1 [AZD7762] (partner 0.2 µM)
Summary of the method: (§1)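 Nuclei were stained with Hoechst during a one-step fixation (final 0.05% Triton X-100, 1% formaldehyde, 1 ug/ml Hoechst) carried out 5 days after dosing, then counted on 4× images. The cells, lung cancer lines in 1536-well plates, had been dosed by pin tool the day after seeding with one drug alone or a fixed anchor-drug dose plus five library-drug doses (not always all listed) in √10 steps. Relative viability is the nuclei count in treated wells divided by that in vehicle wells, and each value is the median of duplicate plates.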

[1] = compound: C1COCCN1C2=NC(=NC3=C2OC4=C3C=CC=N4)C5=CC(=CC=C5)NC(=O)C6=CN=C(C=C6)N + Nc1nc2[nH]cc(CCc3ccc(C(=O)N[C@@H](CCC(=O)O)C(=O)O)cc3)c2c(=O)[nH]1 [Pemetrexed] (partner 0.2 µM)
Summary of the method: as §1

Entinostat + Dasatinib = compound: Nc1ccccc1NC(=O)c1ccc(CNC(=O)OCc2cccnc2)cc1 [Entinostat] + Cc1nc(Nc2ncc(C(=O)Nc3c(C)cccc3Cl)s2)cc(N2CCN(CCO)CC2)n1 [Dasatinib] (partner 0.075 µM)
Summary of the method: as §1

Entinostat + Foretinib = compound: Nc1ccccc1NC(=O)c1ccc(CNC(=O)OCc2cccnc2)cc1 [Entinostat] + COc1cc2c(Oc3ccc(NC(=O)C4(C(=O)Nc5ccc(F)cc5)CC4)cc3F)ccnc2cc1OCCCN1CCOCC1 [Foretinib] (partner 0.25 µM)
Summary of the method: as §1

NCI-H3122
relative viability (SGI-1776 + AZD7762; first compound 0.08 µM): 0.941
relative viability (SGI-1776 + AZD7762; first compound 0.8 µM): 0.935
relative viability (SGI-1776 + AZD7762; first compound 2.53 µM): 0.938
relative viability (SGI-1776 + AZD7762; first compound 8 µM): 1
relative viability ([1]; first compound 0.02 µM): 0.207
relative viability ([1]; first compound 0.06325 µM): 0.199
relative viability ([1]; first compound 0.2 µM): 0.183
relative viability ([1]; first compound 0.6325 µM): 0.186
relative viability ([1]; first compound 2 µM): 0.183
relative viability (Entinostat + Dasatinib; first compound 0.02 µM): 1.03
relative viability (Entinostat + Dasatinib; first compound 0.06325 µM): 0.98
relative viability (Entinostat + Dasatinib; first compound 0.2 µM): 0.812
relative viability (Entinostat + Dasatinib; first compound 0.6325 µM): 0.629
relative viability (Entinostat + Dasatinib; first compound 2 µM): 0.0849
relative viability (Entinostat + Foretinib; first compound 0.02 µM): 0.992
relative viability (Entinostat + Foretinib; first compound 0.06325 µM): 0.995
relative viability (Entinostat + Foretinib; first compound 0.2 µM): 0.999
relative viability (Entinostat + Foretinib; first compound 0.6325 µM): 0.973
relative viability (Entinostat + Foretinib; first compound 2 µM): 0.776

NCI-H2126
relative viability (SGI-1776 + AZD7762; first compound 0.08 µM): 1
relative viability (SGI-1776 + AZD7762; first compound 0.8 µM): 0.98
relative viability (SGI-1776 + AZD7762; first compound 2.53 µM): 1.02
relative viability (SGI-1776 + AZD7762; first compound 8 µM): 0.959
relative viability ([1]; first compound 0.02 µM): 0.706
relative viability ([1]; first compound 0.06325 µM): 0.784
relative viability ([1]; first compound 0.2 µM): 0.674
relative viability ([1]; first compound 0.6325 µM): 0.629
relative viability ([1]; first compound 2 µM): 0.559
relative viability (Entinostat + Dasatinib; first compound 0.02 µM): 0.615
relative viability (Entinostat + Dasatinib; first compound 0.06325 µM): 0.545
relative viability (Entinostat + Dasatinib; first compound 0.2 µM): 0.443
relative viability (Entinostat + Dasatinib; first compound 0.6325 µM): 0.349
relative viability (Entinostat + Dasatinib; first compound 2 µM): 0.268
relative viability (Entinostat + Foretinib; first compound 0.02 µM): 1.12
relative viability (Entinostat + Foretinib; first compound 0.06325 µM): 1.06
relative viability (Entinostat + Foretinib; first compound 0.2 µM): 1.05
relative viability (Entinostat + Foretinib; first compound 0.6325 µM): 0.572
relative viability (Entinostat + Foretinib; first compound 2 µM): 0.415

LU99A
relative viability (SGI-1776 + AZD7762; first compound 0.08 µM): 0.38
relative viability (SGI-1776 + AZD7762; first compound 0.8 µM): 0.384
relative viability (SGI-1776 + AZD7762; first compound 2.53 µM): 0.339
relative viability (SGI-1776 + AZD7762; first compound 8 µM): 0.294
relative viability ([1]; first compound 0.02 µM): 0.204
relative viability ([1]; first compound 0.06325 µM): 0.183
relative viability ([1]; first compound 0.2 µM): 0.223
relative viability ([1]; first compound 0.6325 µM): 0.184
relative viability ([1]; first compound 2 µM): 0.178
relative viability (Entinostat + Dasatinib; first compound 0.02 µM): 0.529
relative viability (Entinostat + Dasatinib; first compound 0.06325 µM): 0.577
relative viability (Entinostat + Dasatinib; first compound 0.2 µM): 0.451
relative viability (Entinostat + Dasatinib; first compound 0.6325 µM): 0.477
relative viability (Entinostat + Dasatinib; first compound 2 µM): 0.439
relative viability (Entinostat + Foretinib; first compound 0.02 µM): 0.773
relative viability (Entinostat + Foretinib; first compound 0.06325 µM): 0.739
relative viability (Entinostat + Foretinib; first compound 0.2 µM): 0.76
relative viability (Entinostat + Foretinib; first compound 0.6325 µM): 0.579
relative viability (Entinostat + Foretinib; first compound 2 µM): 0.442

NCI-H1666
relative viability (SGI-1776 + AZD7762; first compound 0.08 µM): 0.945
relative viability (SGI-1776 + AZD7762; first compound 0.8 µM): 0.873
relative viability (SGI-1776 + AZD7762; first compound 2.53 µM): 0.862
relative viability (SGI-1776 + AZD7762; first compound 8 µM): 0.834
relative viability ([1]; first compound 0.02 µM): 0.861
relative viability ([1]; first compound 0.06325 µM): 0.812
relative viability ([1]; first compound 0.2 µM): 0.699
relative viability ([1]; first compound 0.6325 µM): 0.749
relative viability ([1]; first compound 2 µM): 0.546
relative viability (Entinostat + Dasatinib; first compound 0.02 µM): 0.751
relative viability (Entinostat + Dasatinib; first compound 0.06325 µM): 0.781
relative viability (Entinostat + Dasatinib; first compound 0.2 µM): 0.833
relative viability (Entinostat + Dasatinib; first compound 0.6325 µM): 0.595
relative viability (Entinostat + Dasatinib; first compound 2 µM): 0.455
relative viability (Entinostat + Foretinib; first compound 0.02 µM): 1.06
relative viability (Entinostat + Foretinib; first compound 0.06325 µM): 1.02
relative viability (Entinostat + Foretinib; first compound 0.2 µM): 0.964
relative viability (Entinostat + Foretinib; first compound 0.6325 µM): 0.537
relative viability (Entinostat + Foretinib; first compound 2 µM): 0.366

NCI-H460
relative viability (SGI-1776 + AZD7762; first compound 0.08 µM): 0.717
relative viability (SGI-1776 + AZD7762; first compound 0.8 µM): 0.669
relative viability (SGI-1776 + AZD7762; first compound 2.53 µM): 0.572
relative viability (SGI-1776 + AZD7762; first compound 8 µM): 0.707
relative viability ([1]; first compound 0.02 µM): 0.0585
relative viability ([1]; first compound 0.06325 µM): 0.0645
relative viability ([1]; first compound 0.2 µM): 0.0766
relative viability ([1]; first compound 0.6325 µM): 0.0835
relative viability ([1]; first compound 2 µM): 0.0565
relative viability (Entinostat + Dasatinib; first compound 0.02 µM): 0.52
relative viability (Entinostat + Dasatinib; first compound 0.06325 µM): 0.548
relative viability (Entinostat + Dasatinib; first compound 0.2 µM): 0.235
relative viability (Entinostat + Dasatinib; first compound 0.6325 µM): 0.0904
relative viability (Entinostat + Dasatinib; first compound 2 µM): 0.0466
relative viability (Entinostat + Foretinib; first compound 0.02 µM): 0.967
relative viability (Entinostat + Foretinib; first compound 0.06325 µM): 0.954
relative viability (Entinostat + Foretinib; first compound 0.2 µM): 0.699
relative viability (Entinostat + Foretinib; first compound 0.6325 µM): 0.193
relative viability (Entinostat + Foretinib; first compound 2 µM): 0.0625
